± gives the standard deviation of the averaged measurements.
Tests used:
Test in all cases: level (log10 ratio to DMSO vehicle control); higher = higher biomarker level / cell amount than vehicle control
Conditions in all cases: in DMSO
[1] = compound: C=C(C)C(=O)OCCC(F)(F)C(F)(F)C(F)(F)C(F)(F)C(F)(C(F)(F)F)C(F)(F)F [(Perfluoro-5-methylhexyl)ethyl 2-methylprop-2-enoate]
Procedure: (§1)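 BioMAP Diversity Plus panel of 12 human primary cell co-culture systems (3C, 4H, LPS, SAg, BT, BF4T, BE3C, CASM3C, HDF3CGF, KF3CT, MyoF, Mphg). Compounds were added 1 h before stimulation and left for 24 h (MyoF 48 h; BT 72 h for soluble read-outs or 6 d for IgG). Biomarkers were read by ELISA, cytotoxicity by SRB, PBMC viability and proliferation by Alamar Blue. Each well value was divided by the mean of 8 DMSO control wells on the same plate and log10 transformed; duplicate blinded samples were tested at 4 concentrations.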

[2] = compound: FC(F)(F)C(F)(F)C(F)(F)C(F)(F)C(F)(F)C(F)(F)I [Perfluoro-1-iodohexane]
Procedure: as §1

[3] = compound: FC(F)(F)C(F)(F)C(F)(F)C(F)(F)C(F)(F)CCI [1-Iodo-1H,1H,2H,2H-perfluoroheptane]
Procedure: as §1

[4] = compound: NC(=O)C(F)(F)C(F)(F)F [Pentafluoropropionamide]
Procedure: as §1

[5] = compound: O=C(O)C(F)(F)C(F)(F)C(F)(F)C(F)(F)C(F)(F)C(F)(F)C(F)(F)C(F)F [9-H-Perfluorononanoic acid]
Procedure: as §1

[6] = compound: O=C(O)C(F)(F)C(F)(F)C(F)(F)F [Perfluorobutanoic acid]
Procedure: as §1

[7] = compound: O=C(O)C(F)(F)C(F)(F)C(F)(F)OC(F)(C(F)(F)F)C(F)(F)F [Perfluoro-4-isopropoxybutanoic acid]
Procedure: as §1

Test System | level (log10) ([1]; 6700 nM) | level (log10) ([1]; 20000 nM) | level (log10) ([2]; 6700 nM) | level (log10) ([2]; 20000 nM) | level (log10) ([2]; 60000 nM) | level (log10) ([3]; 6700 nM) | level (log10) ([3]; 20000 nM) | level (log10) ([3]; 60000 nM) | level (log10) ([4]; 6700 nM) | level (log10) ([4]; 20000 nM) | level (log10) ([4]; 60000 nM) | level (log10) ([5]; 6700 nM) | level (log10) ([5]; 20000 nM) | level (log10) ([5]; 60000 nM) | level (log10) ([6]; 6700 nM) | level (log10) ([6]; 20000 nM) | level (log10) ([6]; 60000 nM) | level (log10) ([7]; 6700 nM) | level (log10) ([7]; 20000 nM) | level (log10) ([7]; 60000 nM)
LPS:sTNF-alpha | 0.0265 ± 0.04 | 0.0345 ± 0.063 | 0.0005 ± 0.022 | -0.008 ± 0.016 | 0.0075 ± 0.029 | 0.003 ± 0.011 | -0.0065 ± 0.04 | -0.0135 ± 0.046 | 0.05 ± 0.0014 | 0.0015 ± 0.023 | 0.0095 ± 0.04 | -0.0145 ± 0.012 | -0.0055 ± 0.016 | -0.0115 ± 0.019 | -0.0195 ± 0.012 | -0.0055 ± 0.0078 | -0.041 ± 0.034 | -0.0215 ± 0.15 | -0.012 ± 0.13 | -0.031 ± 0.1
BT:PBMC Cytotoxicity | 0.004 ± 0.0057 | 0.007 ± 0.021 | 0.042 ± 0.014 | -0.0045 ± 0.022 | 0.0285 ± 0.0035 | -0.012 ± 0.03 | -0.0265 ± 0.028 | -0.024 ± 0.011 | 0.0065 ± 0.042 | 0.013 ± 0.034 | -0.02 ± 0.0014 | -0.009 ± 0.055 | 0.0435 ± 0.025 | 0.103 | 0.003 ± 0.011 | 0.0255 ± 0.018 | -0.0175 ± 0.00071 | 0.02 ± 0.0028 | -0.0165 ± 0.0021 | 0.056 ± 0.016
BF4T:CCL2/MCP-1 | 0.012 ± 0.011 | 0.0275 ± 0.005 | -0.002 ± 0.025 | -0.024 ± 0.025 | -0.0315 ± 0.028 | -0.008 ± 0.025 | -0.044 ± 0.044 | -0.055 ± 0.02 | -0.0075 ± 0.0035 | -0.0195 ± 0.00071 | 0.001 ± 0.025 | -0.164 ± 0.011 | -0.19 ± 0.0057 | -0.122 ± 0.036 | 0.004 ± 0.038 | 0.017 ± 0.0057 | 0.006 ± 0.0071 | 0.0235 ± 0.046 | 0.0325 ± 0.084 | 0.045 ± 0.078
BF4T:CCL26/Eotaxin-3 | -0.0125 ± 0.0064 | 0.016 ± 0.044 | 0.0255 ± 0.0035 | 0.0135 ± 0.015 | -0.0145 ± 0.059 | -0.0135 ± 0.012 | -0.0315 ± 0.0092 | -0.17 ± 0.021 | -0.009 ± 0.017 | -0.0155 ± 0.023 | -0.0135 ± 0.011 | -0.174 ± 0.028 | -0.198 ± 0.049 | -0.147 ± 0.0071 | -0.0225 ± 0.042 | 0.0075 ± 0.0021 | 0.008 ± 0.028 | -0.0055 ± 0.09 | -0.0185 ± 0.069 | -0.0105 ± 0.016
BF4T:CD54/ICAM-1 | -0.0065 ± 0.015 | -0.017 ± 0.0099 | -0.004 ± 0.0057 | 0.0045 ± 0.013 | 0 ± 0.0057 | -0.003 ± 0.0014 | -0.0215 ± 0.019 | -0.015 ± 0.0099 | -0.021 ± 0.018 | -0.007 ± 0.014 | -0.019 ± 0.017 | -0.0775 ± 0.0092 | -0.088 ± 0.0028 | -0.0795 ± 0.00071 | 0.007 ± 0.0057 | -0.002 ± 0.0071 | -0.002 ± 0.018 | -0.0095 ± 0.021 | -0.007 ± 0.0057 | -0.0115 ± 0.013
BE3C:CXCL11/I-TAC | 0.005 ± 0.0099 | 0.0105 ± 0.0092 | -0.0005 ± 0.0021 | 0.002 ± 0.0057 | 0.0175 ± 0.0092 | 0.0075 ± 0.013 | 0.0005 ± 0.016 | 0.0005 ± 0.018 | -0.0065 ± 0.0092 | -0.0055 ± 0.018 | -0.006 ± 0.0071 | -0.01 ± 0.0085 | -0.009 ± 0.0085 | -0.036 ± 0.021 | 0.007 ± 0.0099 | -0.003 ± 0.0014 | -0.0085 ± 0.015 | -0.0095 ± 0.005 | 0.008 ± 0.0014 | 0.018 ± 0.0099
LPS:M-CSF | 0.022 ± 0.02 | 0.006 ± 0.0042 | 0.0135 ± 0.019 | -0.0055 ± 0.05 | -0.003 ± 0.025 | -0.0145 ± 0.0092 | -0.0185 ± 0.0035 | -0.031 ± 0.017 | -0.0285 ± 0.039 | -0.0055 ± 0.0064 | 0.023 ± 0.0042 | -0.025 ± 0.04 | -0.0085 ± 0.016 | 0.0525 ± 0.044 | 0.004 ± 0.014 | -0.005 ± 0.016 | 0.003 ± 0.03 | 0.001 ± 0.0057 | -0.004 ± 0.023 | 0.016 ± 0.0028
LPS:CD62E/E-Selectin | 0.006 ± 0.0099 | 0.0095 ± 0.012 | -0.0115 ± 0.0035 | -0.0175 ± 0.011 | 0.015 ± 0.023 | 0.0045 ± 0.012 | 0.004 ± 0.0042 | -0.0005 ± 0.0064 | -0.0265 ± 0.025 | -0.0185 ± 0.028 | -0.004 ± 0.0071 | 0.0005 ± 0.042 | 0.003 ± 0.0071 | 0.0525 ± 0.0035 | -0.012 ± 0.018 | -0.01 ± 0.013 | -0.0085 ± 0.005 | -0.004 ± 0.013 | -0.013 ± 0.048 | 0.001 ± 0.021
BE3C:CD87/uPAR | 0.0035 ± 0.016 | 0.0165 ± 0.035 | 0.0165 ± 0.018 | 0.0035 ± 0.00071 | 0.0465 ± 0.026 | 0.006 ± 0.02 | 0.002 ± 0.0057 | 0.027 ± 0.0042 | 0.0115 ± 0.042 | -0.025 ± 0.0057 | -0.0145 ± 0.022 | 0.0155 ± 0.035 | 0.0015 ± 0.0092 | 0.0325 ± 0.0021 | -0.012 ± 0.0099 | 0.0015 ± 0.013 | -0.015 ± 0.013 | -0.016 ± 0.033 | 0.001 ± 0.031 | 0.0275 ± 0.035
4H:SRB | 0.002 ± 0.013 | -0.0025 ± 0.019 | -0.0065 ± 0.011 | -0.008 ± 0.0042 | -0.0105 ± 0.0035 | -0.004 ± 0.0057 | -0.01 ± 0.0057 | -0.008 ± 0.013 | -0.0055 ± 0.021 | -0.0095 ± 0.0078 | -0.0135 ± 0.016 | 0.008 ± 0.033 | -0.0115 ± 0.025 | -0.039 ± 0.0099 | -0.02 ± 0.044 | -0.0115 ± 0.0035 | -0.007 ± 0.024 | -0.0085 ± 0.021 | -0.008 ± 0.023 | -0.0275 ± 0.019
LPS:SRB | -0.001 ± 0.0028 | -0.0085 ± 0.0021 | -0.0025 ± 0.0064 | -0.0055 ± 0.0064 | -0.0085 ± 0.00071 | -0.006 ± 0.0014 | -0.009 ± 0.014 | -0.005 ± 0.0071 | 0 ± 0.014 | -0.006 ± 0.0014 | -0.0105 ± 0.00071 | -0.005 ± 0.016 | -0.01 ± 0.014 | -0.022 ± 0.0099 | -0.006 ± 0.028 | -0.013 ± 0.0071 | -0.001 ± 0.0099 | 0.0075 ± 0.015 | 0.018 ± 0.0099 | 0.0215 ± 0.016
LPS:CD141/Thrombomodulin | 0.0055 ± 0.0092 | -0.0345 ± 0.021 | -0.0175 ± 0.0035 | -0.0095 ± 0.025 | -0.0105 ± 0.0092 | -0.016 ± 0.0085 | -0.014 ± 0.0099 | -0.032 ± 0.0014 | -0.0385 ± 0.00071 | -0.005 ± 0.0028 | -0.01 ± 0.0014 | 0.015 ± 0.017 | 0.018 ± 0.0057 | 0.027 ± 0.03 | -0.0035 ± 0.046 | -0.0295 ± 0.05 | 0.008 ± 0.054 | 0.0205 ± 0.012 | 0.016 ± 0.013 | 0.0225 ± 0.0035
LPS:CD69 | -0.019 ± 0.069 | -0.0145 ± 0.08 | -0.0185 ± 0.0064 | -0.0025 ± 0.0035 | -0.032 ± 0.0099 | -0.015 ± 0.0071 | -0.015 | -0.019 ± 0.0057 | -0.03 ± 0.0014 | -0.0255 ± 0.016 | -0.01 ± 0.0028 | -0.018 ± 0.0028 | -0.0275 ± 0.039 | -0.0575 ± 0.0035 | -0.0005 ± 0.081 | 0.0145 ± 0.088 | 0.002 ± 0.075 | -0.0005 ± 0.023 | -0.006 ± 0.0042 | -0.0145 ± 0.046
BT:sIL-17A | -0.19 ± 0.31 | -0.015 ± 0.15 | -0.004 ± 0.018 | -0.0905 ± 0.12 | -0.089 ± 0.2 | -0.269 ± 0.12 | 0.037 ± 0.15 | -0.22 ± 0.067 | 0.0075 ± 0.1 | -0.031 ± 0.051 | 0.0105 ± 0.015 | 0.0095 ± 0.087 | -0.02 ± 0.024 | -0.126 ± 0.0099 | 0.0335 ± 0.018 | -0.0265 ± 0.025 | -0.019 ± 0.021 | 0.027 ± 0.05 | 0.052 ± 0.096 | -0.0105 ± 0.21
LPS:CD142/Tissue Factor | 0.032 ± 0.014 | 0.006 ± 0.014 | -0.018 ± 0.038 | 0.0045 ± 0.0021 | 0.0045 ± 0.011 | 0.0045 ± 0.018 | 0.0285 ± 0.016 | 0.038 ± 0.0085 | 0.0095 ± 0.015 | -0.022 ± 0.034 | -0.0425 ± 0.046 | -0.03 ± 0.021 | -0.024 ± 0.011 | 0.0785 ± 0.039 | 0.0045 ± 0.037 | -0.0205 ± 0.00071 | -0.0045 ± 0.019 | 0.019 ± 0.033 | 0.0165 ± 0.011 | -0.016 ± 0.1
